Biological target: Angiopoietin-1 receptor (Homo sapiens, UniProt Q02763)
Test: Homogeneous Time-Resolved Fluorescence (HTRF) Enzyme Assay
Description: The assay uses purified GST-Tie-2 or GST-VEGFR2 interacting with biotinylated peptide substrates. HTRF is based on the proximity of europium cryptate (donor fluorophore)-labeled antiphosphotyrosine and streptavidin labeled with APC (allophycocyanin), which have been brought together by a binding reaction. […] The IC50 values for inhibitors were determined by a four-parameter sigmoidal curve fit.

Angiopoietin-1 receptor, sequence (Q02763 whole entry): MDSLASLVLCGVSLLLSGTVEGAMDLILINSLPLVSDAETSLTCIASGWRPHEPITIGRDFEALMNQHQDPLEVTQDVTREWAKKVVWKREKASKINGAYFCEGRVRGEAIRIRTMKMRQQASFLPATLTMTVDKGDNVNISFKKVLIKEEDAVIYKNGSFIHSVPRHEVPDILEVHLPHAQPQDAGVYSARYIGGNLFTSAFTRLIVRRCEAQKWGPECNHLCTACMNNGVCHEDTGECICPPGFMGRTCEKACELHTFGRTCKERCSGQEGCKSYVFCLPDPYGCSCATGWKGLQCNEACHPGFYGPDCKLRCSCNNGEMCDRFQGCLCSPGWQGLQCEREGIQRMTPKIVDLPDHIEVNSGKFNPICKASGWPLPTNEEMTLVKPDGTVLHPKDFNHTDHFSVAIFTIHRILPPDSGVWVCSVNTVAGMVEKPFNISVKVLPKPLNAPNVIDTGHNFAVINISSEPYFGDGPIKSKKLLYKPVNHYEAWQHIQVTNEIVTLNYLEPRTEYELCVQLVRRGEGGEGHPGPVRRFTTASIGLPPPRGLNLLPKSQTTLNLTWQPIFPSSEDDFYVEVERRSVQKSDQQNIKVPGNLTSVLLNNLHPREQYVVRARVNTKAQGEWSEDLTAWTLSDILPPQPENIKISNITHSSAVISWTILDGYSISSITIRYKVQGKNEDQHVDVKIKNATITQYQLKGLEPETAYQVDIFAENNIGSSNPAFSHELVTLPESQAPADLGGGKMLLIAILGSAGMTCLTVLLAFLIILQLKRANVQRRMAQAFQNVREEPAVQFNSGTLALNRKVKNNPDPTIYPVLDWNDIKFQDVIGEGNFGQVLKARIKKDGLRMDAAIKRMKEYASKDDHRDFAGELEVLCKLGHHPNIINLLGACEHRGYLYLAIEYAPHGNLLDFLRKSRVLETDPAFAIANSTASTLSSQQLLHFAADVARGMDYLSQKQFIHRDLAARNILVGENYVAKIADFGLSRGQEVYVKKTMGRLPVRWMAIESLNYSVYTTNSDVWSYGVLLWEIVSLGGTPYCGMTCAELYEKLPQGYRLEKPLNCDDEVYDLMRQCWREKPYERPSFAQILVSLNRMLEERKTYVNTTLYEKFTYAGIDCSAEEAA

IC50: 1.3 µM
SMILES: O=C(Nc1ccc(Oc2ccc3nc(NC(=O)c4ccccc4-n4cccc4)[nH]c3c2)cc1)Nc1cc(C(F)(F)F)ccc1F [N-(6-(4-((2-Fluoro-5(trifluoromethyl)phenyl)aminocarbonylamino)phenoxy)-1H-benzimidazol-2-yl)-2-(1H-pyrrol-1-yl)benzamide]
